Assay type in all cases: biochemical
Test [1] has as its target T1, human JAK1 (a.a. 837-1142) (Homo sapiens, UniProt P23458).
T1 construct: human JAK1 (a.a. 837-1142); His tag (N); made in house; host or cells: insect cells (baculovirus)
Kind of test: In vitro JAK kinase assay (HTRF, phosphorylation of a biotinylated peptide), JAK1. As to conditions: read-out: JAK1 IC50. A digest of the protocol:
(§1)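 Kinase reactions ran at room temperature for 1 h with ATP matched per isoform (JAK1 90 μM, JAK2 30 μM, JAK3 3 μM). After an EDTA stop, the phosphorylated biotin-peptide was read by HTRF using Eu-Py20 and SA-APC after 40 min binding.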
(TR-FRET usually uses a lanthanide donor and a delayed reading to cut background.)

The target in another test is TYK2 (Homo sapiens, UniProt P29597). The test can be described thus: TYK2 kinase inhibition (Table A1).
Chain of TYK2 (P29597 whole entry): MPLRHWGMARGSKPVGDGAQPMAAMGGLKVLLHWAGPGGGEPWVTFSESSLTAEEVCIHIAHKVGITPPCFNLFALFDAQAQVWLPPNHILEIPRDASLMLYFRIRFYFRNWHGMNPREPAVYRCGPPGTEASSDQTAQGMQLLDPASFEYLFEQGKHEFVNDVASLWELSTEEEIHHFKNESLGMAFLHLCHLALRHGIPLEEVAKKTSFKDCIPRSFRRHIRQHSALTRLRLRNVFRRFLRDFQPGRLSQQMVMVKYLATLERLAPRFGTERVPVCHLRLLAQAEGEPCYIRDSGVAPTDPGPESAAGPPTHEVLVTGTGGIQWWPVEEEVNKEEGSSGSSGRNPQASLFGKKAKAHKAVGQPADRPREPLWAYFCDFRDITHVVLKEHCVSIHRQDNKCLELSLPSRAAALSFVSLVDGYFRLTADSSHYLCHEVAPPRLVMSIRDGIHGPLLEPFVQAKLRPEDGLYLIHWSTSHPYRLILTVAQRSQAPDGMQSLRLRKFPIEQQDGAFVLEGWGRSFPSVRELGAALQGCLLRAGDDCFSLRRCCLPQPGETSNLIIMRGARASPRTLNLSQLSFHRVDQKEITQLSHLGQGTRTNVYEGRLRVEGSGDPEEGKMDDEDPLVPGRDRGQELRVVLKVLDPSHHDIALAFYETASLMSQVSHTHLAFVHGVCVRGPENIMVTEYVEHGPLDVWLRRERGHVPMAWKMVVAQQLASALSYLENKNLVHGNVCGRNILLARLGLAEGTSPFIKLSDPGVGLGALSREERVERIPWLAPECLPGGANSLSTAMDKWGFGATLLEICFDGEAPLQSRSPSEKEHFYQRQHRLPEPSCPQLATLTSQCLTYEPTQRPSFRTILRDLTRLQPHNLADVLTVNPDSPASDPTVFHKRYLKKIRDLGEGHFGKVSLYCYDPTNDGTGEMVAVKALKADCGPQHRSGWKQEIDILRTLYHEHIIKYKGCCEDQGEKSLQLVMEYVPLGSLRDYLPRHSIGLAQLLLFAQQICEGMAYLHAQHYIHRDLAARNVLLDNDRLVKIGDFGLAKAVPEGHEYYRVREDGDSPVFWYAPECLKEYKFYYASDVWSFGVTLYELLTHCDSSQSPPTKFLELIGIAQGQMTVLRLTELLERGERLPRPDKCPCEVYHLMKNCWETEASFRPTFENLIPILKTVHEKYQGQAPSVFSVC
In test [2] the target is T2, human JAK3 (a.a. 781-1124) (Homo sapiens, UniProt P52333).
T2 construct: JAK3 (a.a. 781-1124); His tag (N); made in house; host or cells: insect cells (baculovirus)
T2 sequence (P52333 781-1124): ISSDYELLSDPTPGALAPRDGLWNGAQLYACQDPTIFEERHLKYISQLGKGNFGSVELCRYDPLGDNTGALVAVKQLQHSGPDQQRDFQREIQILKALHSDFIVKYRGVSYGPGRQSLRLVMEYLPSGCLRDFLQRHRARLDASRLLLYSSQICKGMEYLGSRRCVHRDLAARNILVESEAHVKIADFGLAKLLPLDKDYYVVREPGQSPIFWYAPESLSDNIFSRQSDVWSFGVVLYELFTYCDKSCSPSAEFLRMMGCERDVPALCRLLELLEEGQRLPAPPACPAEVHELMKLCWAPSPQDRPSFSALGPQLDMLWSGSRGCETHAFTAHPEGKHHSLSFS
The test can be described thus: In vitro JAK kinase assay (HTRF, phosphorylation of a biotinylated peptide), JAK3. Put shortly: as §1

Test [3] has as its target T3, human JAK2 (a.a. 828-1132) (Homo sapiens, UniProt O60674).
T3 construct: JAK2 (a.a. 828-1132); His tag (N); made in house; host or cells: insect cells (baculovirus)
Kind of test: In vitro JAK kinase assay (HTRF, phosphorylation of a biotinylated peptide), JAK2. A digest of the protocol:
as §1

From US8871753B2, “Macrocyclic compounds and their use as kinase inhibitors” (Incyte Corporation, priority 2008, dated 2014) come the findings set out here.

Structures can show the parent of a compound that is named as a salt. Where two headings read alike, the source gives them in different places.

T3 sequence (O60674 828-1132): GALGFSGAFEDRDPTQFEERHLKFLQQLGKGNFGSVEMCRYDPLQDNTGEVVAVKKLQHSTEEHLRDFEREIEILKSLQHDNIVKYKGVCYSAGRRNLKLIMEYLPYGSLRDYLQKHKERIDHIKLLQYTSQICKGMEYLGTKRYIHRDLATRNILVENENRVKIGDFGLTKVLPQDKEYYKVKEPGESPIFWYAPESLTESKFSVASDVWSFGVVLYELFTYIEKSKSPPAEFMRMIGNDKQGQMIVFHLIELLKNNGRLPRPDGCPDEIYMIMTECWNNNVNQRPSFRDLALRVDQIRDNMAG
T1 sequence (P23458 849-1154): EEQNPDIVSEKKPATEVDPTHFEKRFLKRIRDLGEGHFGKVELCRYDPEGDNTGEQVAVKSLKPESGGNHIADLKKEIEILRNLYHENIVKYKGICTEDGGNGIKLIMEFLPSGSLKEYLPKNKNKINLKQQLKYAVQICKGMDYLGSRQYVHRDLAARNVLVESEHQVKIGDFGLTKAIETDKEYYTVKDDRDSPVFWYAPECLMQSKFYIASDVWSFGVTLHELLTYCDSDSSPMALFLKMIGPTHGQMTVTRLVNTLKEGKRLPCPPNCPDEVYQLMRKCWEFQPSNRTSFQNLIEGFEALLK

Take `Cc1nc(CC(=O)Nc2ccc3cc2CCc2cccc(c2)Nc2ncc(Cl)c(n2)N3)c(C)s1` [Example C46, N-[6-Chloro-2,4,8,22-tetraazatetracyclo[14.3.1.1(3,7).1(9,13)]docosa-1(20),3(22),4,6,9(21),10,12,16,18-nonaen-12-yl]-2-(2,5-dimethyl-1,3-thiazol-4-yl)acetamide trifluoroacetate]: the IC50 (as a rule, the concentration at which inhibition is half-maximal) in test [1] turned out to be 79 nM; against TYK2, 165 nM; in test [2] it was 1490 nM; in test [3], 170 nM.
Regarding `O=C(Cc1coc2ccccc12)Nc1ccc2cc1CCc1cccc(c1)Nc1ncc(Cl)c(n1)N2` [Example C47, 2-(1-Benzofuran-3-yl)-N-[6-chloro-2,4,8,22-tetraazatetracyclo[14.3.1.1(3,7).1(9,13)]docosa-1(20),3(22),4,6,9(21),10,12,16,18-nonaen-12-yl]acetamide trifluoroacetate], the IC50 in test [1] amounted to 67 nM; against TYK2, 300 nM; in test [2], 1140 nM; in test [3] it was 134 nM.
Consider `Cc1ncsc1CCC(=O)Nc1ccc2cc1CCc1cccc(c1)Nc1ncc(Cl)c(n1)N2` [Example C48, N-[6-Chloro-2,4,8,22-tetraazatetracyclo[14.3.1.1(3,7).1(9,13)]docosa-1(20),3(22),4,6,9(21),10,12,16,18-nonaen-12-yl]-3-(4-methyl-1,3-thiazol-5-yl)propanamide trifluoroacetate], for which the IC50 in test [1] came out at 52 nM; against TYK2, 647 nM; in test [2], 1150 nM; in test [3], 74 nM.
For the compound `Cc1cc(C(=O)N2CCC(CC(=O)Nc3ccc4cc3CCc3cncc(c3)Nc3ncc(F)c(n3)N4)CC2)no1` [Example C49, N-[6-Fluoro-2,4,8,18,22-pentaazatetracyclo[14.3.1.1(3,7).1(9,13)]docosa-1(20),3(22),4,6,9(21),10,12,16,18-nonaen-12-yl]-2-{1-[(5-methylisoxazol-3-yl)carbonyl]piperidin-4-yl}acetamide trifluoroacetate], the IC50 is 50 nM in test [1], 326 nM against TYK2, over 400 nM in test [2] and over 400 nM in test [3].
On to `Cc1cc(C(=O)N2CCC(CC(=O)Nc3ccc4cc3CCc3cncc(c3)Nc3ncc(C)c(n3)N4)CC2)no1` [Example C51, 2-{1-[(5-Methylisoxazol-3-yl)carbonyl]piperidin-4-yl}-N-[6-methyl-2,4,8,18,22-pentaazatetracyclo[14.3.1.1(3,7).1(9,13)]docosa-1(20),3(22),4,6,9(21),10,12,16,18-nonaen-12-yl]acetamide bis(trifluoroacetate)], for which the IC50 in test [1] was 13 nM; on TYK2 it was 100 nM; in test [2] it was over 400 nM; in test [3] it was 371 nM.
The matching figures for `Cc1cc(C(=O)N2CCC(CC(=O)Nc3ccc4cc3CCc3cccc(c3)Nc3ncc(F)c(n3)N4)CC2)no1` [Example C52, N-[6-Fluoro-2,4,8,22-tetraazatetracyclo[14.3.1.1(3,7).1(9,13)]docosa-1(20),3(22),4,6,9(21),10,12,16,18-nonaen-12-yl]-2-{1-[(5-methylisoxazol-3-yl)carbonyl]piperidin-4-yl}acetamide trifluoroacetate]: over 200 nM, over 200 nM, over 200 nM and over 200 nM.
The matching figures for `Cc1cnc2nc1Nc1ccc(NC(=O)CC3CCN(c4nncs4)CC3)c(c1)CCc1cccc(c1)N2` [Example C53, N-[6-Methyl-2,4,8,22-tetraazatetracyclo[14.3.1.1(3,7).1(9,13)]docosa-1(20),3(22),4,6,9(21),10,12,16,18-nonaen-12-yl]-2-[1-(1,3,4-thiadiazol-2-yl)piperidin-4-yl]acetamide trifluoroacetate]: 39 nM, 199 nM, over 200 nM and over 200 nM.
As to `Cc1cc(C(=O)N2CCC(CC(=O)Nc3ccc4cc3CCc3cccc(c3)Nc3ncc(C)c(n3)N4)CC2)no1` [Example C54, 2-{1-[(5-Methylisoxazol-3-yl)carbonyl]piperidin-4-yl}-N-[6-methyl-2,4,8,22-tetraazatetracyclo[14.3.1.1(3,7).1(9,13)]docosa-1(20),3(22),4,6,9(21),10,12,16,18-nonaen-12-yl]acetamide trifluoroacetate], the IC50 was 65 nM in test [1], 199 nM at TYK2, over 200 nM in test [2] and 199 nM in test [3].
As for `Clc1cnc2nc1Nc1ccc(OCC3CCNC3)c(c1)CCc1cncc(c1)N2` (centres unmarked) [Example C55, 6-Chloro-12-(pyrrolidin-3-ylmethoxy)-2,4,8,18,22-pentaazatetracyclo[14.3.1.1(3,7).1(9,13)]docosa-1(20),3(22),4,6,9(21),10,12,16,18-nonaene trihydrochloride], the IC50 was 96 nM in test [1], over 400 nM on TYK2, over 400 nM in test [2] and over 400 nM in test [3].
As to `CC(=O)N1CCC(COc2ccc3cc2CCc2cncc(c2)Nc2ncc(Cl)c(n2)N3)C1` (centres unmarked) [Example C56, 12-[(1-Acetylpyrrolidin-3-yl)methoxy]-6-chloro-2,4,8,18,22-pentaazatetracyclo[14.3.1.1(3,7).1(9,13)]docosa-1(20),3(22),4,6,9(21),10,12,16,18-nonaene bis(trifluoroacetate)], the IC50 in test [1] is 216 nM; against TYK2 it was over 400 nM; in test [2], over 400 nM; in test [3], 255 nM.
Take `N#Cc1ccccc1S(=O)(=O)N1CCC(COc2ccc3cc2CCc2cncc(c2)Nc2ncc(Cl)c(n2)N3)C1` (centres unmarked) [Example C57, 2-{[3-({[6-Chloro-2,4,8,18,22-pentaazatetracyclo[14.3.1.1(3,7).1(9,13)]docosa-1(20),3(22),4,6,9(21),10,12,16,18-nonaen-12-yl]oxy}methyl)pyrrolidin-1-yl]sulfonyl}benzonitrile bis(trifluoroacetate)]: the IC50 is over 400 nM in test [1], over 400 nM against TYK2, over 400 nM in test [2] and 288 nM in test [3].
For `Cc1cc(C(=O)N2CCC(COc3ccc4cc3CCc3cncc(c3)Nc3ncc(Cl)c(n3)N4)C2)no1` (centres unmarked) [Example C58, 6-Chloro-12-({1-[(5-methylisoxazol-3-yl)carbonyl]pyrrolidin-3-yl}methoxy)-2,4,8,18,22-pentaazatetracyclo[14.3.1.1(3,7).1(9,13)]docosa-1(20),3(22),4,6,9(21),10,12,16,18-nonaene bis(trifluoroacetate)], the IC50 in test [1] was 217 nM; at TYK2 it was over 400 nM; in test [2], over 400 nM; in test [3], over 400 nM.
In the case of `O=C(Nc1ccccc1)N1CCC(COc2ccc3cc2CCc2cncc(c2)Nc2ncc(Cl)c(n2)N3)C1` (centres unmarked) [Example C59, 3-({[6-Chloro-2,4,8,18,22-pentaazatetracyclo[14.3.1.1(3,7).1(9,13)]docosa-1(20),3(22),4,6,9(21),10,12,16,18-nonaen-12-yl]oxy}methyl)-N-phenylpyrrolidine-1-carboxamide bis(trifluoroacetate)], the IC50 in test [1] was 102 nM; on TYK2, 371 nM; in test [2], over 400 nM; in test [3] it was over 400 nM.
With `Clc1cnc2nc1Nc1ccc(N3CCNCC3)c(c1)CCc1cccc(c1)N2` [Example D83, 6-Chloro-12-piperazin-1-yl-2,4,8,22-tetraazatetracyclo[14.3.1.1(3,7).1(9,13)]docosa-1(20),3(22),4,6,9(21),10,12,16,18-nonaene bis(trifluoroacetate)], the IC50 in test [1] (Table D1) amounted to 126 nM; on TYK2 (Table D1) it was 129 nM; in test [2] (Table D1), 57 nM; in test [3] (Table D1), 26 nM.
The matching figures for `CC(C)(C)NC(=O)N1CCN(c2ccc3cc2CCc2cccc(c2)Nc2ncc(Cl)c(n2)N3)CC1` [Example D84, N-(tert-Butyl)-4-[6-chloro-2,4,8,22-tetraazatetracyclo[14.3.1.1(3,7).1(9,13)]docosa-1(20),3(22),4,6,9(21),10,12,16,18-nonaen-12-yl]piperazine-1-carboxamide bis(trifluoroacetate)]: 21 nM, 45 nM, 37 nM and 7.3 nM.
On the same counts, the results for `CC(=O)N1CCN(c2ccc3cc2CCc2cccc(c2)Nc2ncc(Cl)c(n2)N3)CC1` [Example D85, 12-(4-Acetylpiperazin-1-yl)-6-chloro-2,4,8,22-tetraazatetracyclo[14.3.1.1(3,7).1(9,13)]docosa-1(20),3(22),4,6,9(21),10,12,16,18-nonaene bis(trifluoroacetate)] are 24 nM, 40 nM, 31 nM and 6.6 nM.
The matching figures for `C[N+]1(C)CCN(c2ccc3cc2CCc2cccc(c2)Nc2ncc(Cl)c(n2)N3)CC1` [Example D86, 4-[6-Chloro-2,4,8,22-tetraazatetracyclo[14.3.1.1(3,7).1(9,13)]docosa-1(20),3(22),4,6,9(21),10,12,16,18-nonaen-12-yl]-1,1-dimethylpiperazin-1-ium bis(trifluoroacetate)]: 295 nM, 268 nM, 169 nM and 87 nM.
